The target in this test is T1, TgACBP2 (Toxoplasma gondii, UniProt A0A7J6JZP9).
T1 construct: gene TGRH88_042420; recombinant TgACBP2 with C-terminal GST tag (tag kept), expressed in E. coli and purified; native HA-tagged protein ~36 kDa
T1 sequence (A0A7J6JZP9 1-311): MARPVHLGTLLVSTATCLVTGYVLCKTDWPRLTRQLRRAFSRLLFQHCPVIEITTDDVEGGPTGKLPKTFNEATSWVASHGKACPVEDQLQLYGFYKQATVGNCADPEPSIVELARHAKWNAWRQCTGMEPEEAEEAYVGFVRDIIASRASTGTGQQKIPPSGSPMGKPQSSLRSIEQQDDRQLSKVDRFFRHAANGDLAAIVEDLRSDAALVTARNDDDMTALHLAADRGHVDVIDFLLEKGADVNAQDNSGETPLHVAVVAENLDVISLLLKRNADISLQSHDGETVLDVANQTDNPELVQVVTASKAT
Description: fluorescence increase of NBD ligand upon binding, microplate reader. The settings on record: labelled compound; 0.1 μM TgACBP2-GST, 0-0.25 μM ligand, PBS, room temperature, 5 min; ex 460 nm, em 540 nm; read-out: K (binding constant).

Take NBD-C16:0-CoA: the Kd worked out at 136 nM.

These data come from article PMC6199492, “Comprehensive Characterization of Toxoplasma Acyl Coenzyme A-Binding Protein TgACBP2 and Its Critical Role in Parasite Cardiolipin Metabolism” (mBio, 2018).
